Laboratory results as given in patent US20100284984A1, “ADENOSINE AND ITS MIMETICS. MODULATORS, TRANSPORT INHIBITORS, AND RECEPTOR AGONISTS AS A THERAPEUTIC TOOL TO REPLACE OR IMPROVE THE EFFICACY OF DEEP BRAIN STIMULATION” (University of Rochester, priority 2007, published 2010).
Entries after “also recorded” stand apart in the source; their conditions may differ.

Key:
[1] = tested on: thalamic neurons; experiment: Drug effect on evoked EPSPs (eEPSP) in thalamic slices, current clamp; type: cell-based, mouse; details: DPCPX 100 nM
Experimental: Thalamic slices (300 μm) from 14-18 day old mouse pups (FVB/NJ mice; Jackson Laboratory) were cut on a Vibratome (TPI) in an ice-cold cutting solution containing (in mM): 2.5 KCl, 1.25 NaH2PO4, 10 MgSO4, 5 CaCl2, 10 glucose, 26 NaHCO3, 230 sucrose and gassed with 5% CO2 and 95% O2. Slices were incubated for a minimum of 1 hr in a slice solution containing (in mM): 126 NaCl, 2.5 KCl, 1.25 NaH2PO4, 2 MgCl2, 2 CaCl2, 10 glucose, and 26 NaHCO3, pH 7.4, and gassed with 5% CO2 and 95% O2 at room temperature. The slices were transferred to a recording chamber (1.5 ml) perfused with aCSF at room temperature or 32° C. Whole-cell current clamp recordings were obtained using a 700B Multiclamp amplifier (Axon Instruments) (Jiang et al., “A Kainate Receptor Increases The Efficacy of Gabaergic Synapses,” Neuron 30:503-13 (2001); Tian et al., “An Astrocytic Basis of Epilepsy,” Nat Med 11:973-81 (2005), which are hereby incorporated by reference in their entirety). Concentric bipolar stimulating electrodes (FHC) were placed ˜100-400 μm ventromedial to the patched VL thalamic neuron. Stimulation was delivered through a constant isolated current source (ISO-Flex stimulus isolator with a Master-8-vp stimulator; AMPI) and consisted of monophasic 60 μs square pulses of varying amplitude (15, 25, 50 μA) and frequency (25, 75, 125, 200 Hz). Based upon maximum current amplitude and the surface area of the electrode, it is estimated that the maximum charge density was in the range of ˜1-10 μC/cm^2. The artifacts of the HFS signal were blanked and staggered to allow continuous observation of the 2.5 Hz signal (Anderson et al., “Selective Attenuation of Afferent Synaptic Transmission as a Mechanism of Thalamic Deep Brain Stimulation-Induced Tremor Arrest,” J Neurosci 26:841-50 (2006), which is hereby incorporated by reference in its entirety). Adenosine measurements were detected using needle shaped electrode (Pt/Ir wire) biosensors (Sarissa Biomedical). Calibration was carried out at the beginning and end of each slice experiment in the bath above the slice. Measurements were obtained ˜100 μm from the stimulation electrode in the thalamic slice. […].
To further analyze the role of adenosine in HFS, the effect of perfusion with an aCSF containing 1-100 μM adenosine in thalamic slices was studied. […]. […] The AMPA receptor antagonist, CNQX could not be tested due to its direct effect on EPSCs (Wang et al., “Astrocytic Ca(2+) Signaling Evoked by Sensory Stimulation in Vivo,” Nat Neurosci 9:816-23 (2006), which is hereby incorporated by reference in its entirety) (FIG. 3G). […]. […]

[2] = tested on: thalamic neurons; experiment: HFS-induced depression of eEPSPs in thalamic slices, pharmacology; type: cell-based, mouse
[3] = tested on: thalamic neurons; experiment: HFS-induced membrane depolarization of thalamic neurons; type: cell-based, mouse; details: thalamic slices during HFS
[4] = tested on: harmaline-induced tremor; experiment: DBS therapeutic window in harmaline-induced tremor; type: in vivo; details: APV and CNQX 10 mg/kg each i.p.; DPCPX 4 mg/Kg i.p.
Experimental: Harmaline was administed i.p. 20 min prior to DBS (20-30 mg/kg) (Wilms et al., “Animal Models of Tremor,” Mov Disord 14:557-71 (1999); Martin et al., “Harmaline-Induced Tremor as a Potential Preclinical Screening Method for Essential Tremor Medications,” Mov Disord 20:298-305 (2005), which are hereby incorporated by reference in their entirety). […] For electrode and microdialysis implantation, mice were anaesthetized with a mixture of Ketamine (60 mg/kg) and Xylazine (10 mg/kg) and placed into a stereotactic frame. The skull was exposed and concentric bipolar microelectrodes (SNE-100, KOPF) or microdialysis probes (Bioanalytical Systems, Inc.) were implanted into the ventrolateral thalamic nucleus at the following coordinates: AP: −1.4 mm; ML: ±0.9 mm; DV: −3.7 mm. The electrodes or microdialysis probes were attached to the skull with dental cement. […] Tremor was recorded by either EMG electrodes placed in the occipital muscles or by the Convuls-1 pressure transducer (Columbus Instruments) in awake freely moving animals. […]
. […] The minimal efficient current amplitude of DBS was determined by methodically changing the stimulation parameters (FIG. 4C). […]

[5] = biological target: Ecto-ATPase; details: Chen et al.; cited from earlier work
[6] = biological target: Ecto-ATPase; details: Yegutkin et al., rat liver plasma membranes; cited from earlier work
[7] = biological target: Ecto-ATPase; details: range over Crack et al.; Dowd et al.; Stout et al.; cited from earlier work
[8] = biological target: T1, Ecto-5′-nucleotidase CD73 (Rattus norvegicus, UniProt P21588); details: Sato et al., rat hearts; cited from earlier work
T1 sequence (P21588 29-551): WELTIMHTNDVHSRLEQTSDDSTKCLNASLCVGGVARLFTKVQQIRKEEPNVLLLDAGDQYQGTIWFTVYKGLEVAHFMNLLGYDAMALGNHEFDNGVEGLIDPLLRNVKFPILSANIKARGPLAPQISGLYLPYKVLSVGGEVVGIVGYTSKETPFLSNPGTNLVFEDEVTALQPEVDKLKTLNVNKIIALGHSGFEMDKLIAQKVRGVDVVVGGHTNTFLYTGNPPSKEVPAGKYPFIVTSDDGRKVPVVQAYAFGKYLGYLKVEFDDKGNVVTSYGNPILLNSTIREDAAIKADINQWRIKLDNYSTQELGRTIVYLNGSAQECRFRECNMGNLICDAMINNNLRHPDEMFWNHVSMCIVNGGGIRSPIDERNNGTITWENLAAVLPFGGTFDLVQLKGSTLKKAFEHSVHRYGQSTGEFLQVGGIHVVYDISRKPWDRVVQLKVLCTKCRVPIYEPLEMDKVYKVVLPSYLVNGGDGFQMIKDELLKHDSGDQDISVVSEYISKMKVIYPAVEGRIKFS

[9] = biological target: T2, adenosine deaminase (Homo sapiens, UniProt P00813); details: at 27° C.; cited from earlier work
T2 sequence (P00813 1-363): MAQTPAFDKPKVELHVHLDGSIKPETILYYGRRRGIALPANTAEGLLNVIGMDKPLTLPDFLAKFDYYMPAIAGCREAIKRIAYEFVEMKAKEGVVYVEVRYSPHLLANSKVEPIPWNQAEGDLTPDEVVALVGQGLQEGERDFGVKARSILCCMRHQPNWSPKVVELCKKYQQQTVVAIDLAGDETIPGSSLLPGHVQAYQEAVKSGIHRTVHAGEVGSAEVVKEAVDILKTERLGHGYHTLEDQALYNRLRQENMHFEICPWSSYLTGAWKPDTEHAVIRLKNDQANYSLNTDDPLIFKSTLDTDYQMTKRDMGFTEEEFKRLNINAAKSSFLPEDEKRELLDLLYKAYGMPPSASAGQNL

## CCCn1c(=O)c2[nH]c(C3CCCC3)nc2n(CCC)c1=O [DPCPX]
[1]
  effect on adenosine-induced reduction of eEPSPs: blocked the effect of adenosine; also recorded: reversibly attenuated the reduction
[2]; 300 nM, directly stimulated pathways
  time for EPSPs to recover to pre-stimulation values after HFS: 12.4 ± 6.1 s
[2]; HFS 125 Hz, 250 μA, 10 sec, 32° C., separate electrodes
  effect on HFS-induced depression of eEPSPs, heterosynaptic pathways: attenuated the depression of eEPSPs; also recorded: potently attenuated the HFS-induced suppression of eEPSPs
[2]; same electrode for HFS and eEPSPs
  effect on HFS-induced depression of eEPSPs, homosynaptic (directly stimulated) pathways: reduced depression of eEPSPs after, but not during, HFS; also recorded: attenuated this reduction following, but not during HFS
[3]
  effect on HFS-induced depolarization: no effect
[4]
  effect on the ability of DBS to reduce harmaline-induced tremor: involuntary movements rather than tremor reduction
  threshold for DBS-induced involuntary movements: developed involuntary movements at stimulation intensities below the therapeutic range

## Cc1ccc(C(=O)Nc2ccc(S(=O)(=O)O)c3cc(S(=O)(=O)O)cc(S(=O)(=O)O)c23)cc1NC(=O)c1cccc(NC(=O)Nc2cccc(C(=O)Nc3cc(C(=O)Nc4ccc(S(=O)(=O)O)c5cc(S(=O)(=O)O)cc(S(=O)(=O)O)c45)ccc3C)c2)c1 [suramin]
[5]
  Ki: 44 µM
[6]
  pIC 50: 4.57
[7]
  IC50: 46 to 114 µM

## COc1ccc(Cl)cc1C(=O)NCCc1ccc(S(=O)(=O)NC(=O)NC2CCCCC2)cc1 [giberclamide]
[8]
  IC50: 10.5 µM

## CC(=O)Nc1ccc(O)cc1 [acetaminophen]
[9]
  Ki: 126 µM
